The values that follow come from ChEMBL document CHEMBL4346749, “Design, synthesis and evaluation of novel, potent DNA alkylating agents and their antibody-drug conjugates (ADCs)” (Bioorg Med Chem Lett, 2019).

Assay type in all cases: functional, cell-based
In one assay the test system is KB. Briefly: Cytotoxicity against human KB cells assessed as reduction in cell viability after 5 days by WST-8 assay. The following applies: 120 h. A general note: Formazan colour is commonly taken as a measure of viable cells.
Assay [1] in a line: Cytotoxicity against human NCI-H2110 cells assessed as reduction in cell viability after 5 days by WST-8 assay. The following applies: NCI-H2110, 120 h.
Another assay has as its system NAMALVA. Briefly: Cytotoxicity against human NAMALWA cells assessed as reduction in cell viability after 5 days by WST-8 assay. The conditions noted are these: 120 h.

Usually IC50 stands for the point on the concentration scale where inhibition reaches its midpoint.

For the molecule `COc1cc2c(cc1OCCCC(=O)Nc1cc(C(=O)Nc3ccc(-c4cc(C(=O)NCC(C)(C)SSC)n(C)c4)cc3)n(C)c1)N=C[C@@H]1Cc3ccccc3N1C2=O`, the IC50 in the assay on KB came to 0.01 nM; in assay [1], 0.1 nM; in the assay on NAMALVA it was 0.03 nM.

Consider `COC(=O)CCNC(=O)c1cc2cc(NC(=O)c3cc(NC(=O)CCCOc4cc5c(cc4OC)C(=O)N4c6ccccc6C[C@H]4C=N5)cn3C)ccc2o1`, for which the IC50 in the assay with KB was 0.2 nM; in assay [1] it was 0.5 nM; in the assay with NAMALVA, 0.06 nM.

Regarding `COc1cc2c(cc1OCCCC(=O)Nc1cc(C(=O)Nc3ccc4sc(C(=O)NCC(C)(C)SSC)cc4c3)n(C)c1)N=C[C@@H]1Cc3ccccc3N1C2=O`, the IC50 in the assay with KB is 0.08 nM; in assay [1], 0.3 nM; with NAMALVA it was 0.01 nM.

`COc1cc2c(cc1OCCCC(=O)Nc1cc(C(=O)Nc3ccc4sc(C(=O)NCC(C)(C)SSC)cc4c3)n(C)c1)N=C[C@@H]1Cc3ccccc3CN1C2=O`: the IC50 was 0.005 nM in the assay on KB, 0.03 nM in assay [1] and 0.002 nM in the assay on NAMALVA.

Take `COC(=O)CCNC(=O)c1cc2cc(NC(=O)c3nc(NC(=O)CCCOc4cc5c(cc4OC)C(=O)N4c6ccccc6C[C@H]4C=N5)cn3C)ccc2s1`: the IC50 with NAMALVA amounted to 0.01 nM.

On to `COC(=O)c1cc2cc(NC(=O)c3cc(NC(=O)CCCOc4cc5c(cc4OC)C(=O)N4c6ccccc6C[C@H]4C=N5)cn3C)ccc2s1`, for which the results for the IC50 (in the assay with KB; in assay [1]; in the assay with NAMALVA) were 0.01 nM, 0.05 nM and 0.02 nM, respectively.

For `COc1cc2c(cc1OCCCC(=O)Nc1cn(C)c(C(=O)Nc3ccc(-c4cc(C(=O)NCC(C)(C)SSC)n(C)c4)cc3)n1)N=C[C@@H]1Cc3ccccc3CN1C2=O`, the IC50 in the assay on KB was determined as 0.006 nM; in assay [1] it was 0.01 nM; with NAMALVA, 0.001 nM.

For `COc1cc2c(cc1OCCCC(=O)Nc1cn(C)c(C(=O)Nc3ccc(-c4cc(C(=O)NCC(C)(C)SSC)n(C)c4)cc3)n1)N=C[C@@H]1Cc3ccccc3N1C2=O`, the IC50 in the assay with KB is 0.04 nM; in assay [1], 0.06 nM; in the assay with NAMALVA, 0.01 nM.

On to `COC(=O)CCNC(=O)c1cc2cc(NC(=O)c3cc(NC(=O)CCCOc4cc5c(cc4OC)C(=O)N4c6ccccc6C[C@H]4C=N5)cn3C)ccc2s1`, for which the half-maximal inhibitory concentration (IC50) in the assay with KB was 0.04 nM; in assay [1] it was 0.2 nM; in the assay with NAMALVA it was 0.03 nM.

On to `COc1cc2c(cc1OCCCC(=O)Nc1cn(C)c(C(=O)Nc3ccc4sc(C(=O)NCC(C)(C)SSC)cc4c3)n1)N=C[C@@H]1Cc3ccccc3N1C2=O`, for which the 50% inhibitory concentration (IC50) with NAMALVA turned out to be 0.03 nM.

Regarding `COC(=O)CCNC(=O)c1cc2cc(NC(=O)c3nc(NC(=O)CCCOc4cc5c(cc4OC)C(=O)N4c6ccccc6C[C@H]4C=N5)cn3C)ccc2o1`, the IC50 with KB came out at 0.08 nM; in assay [1], 0.5 nM; in the assay on NAMALVA it was 0.06 nM.

As for `COc1cc2c(cc1OCCCC(=O)Nc1nc(C(=O)Nc3ccc(NC(=O)CCC(C)(C)SSC)cc3)cs1)N=C[C@@H]1Cc3ccccc3N1C2=O`, the 50% inhibitory concentration (IC50) in the assay on KB worked out at 0.1 nM; in assay [1] it was 0.6 nM; with NAMALVA, 0.03 nM.

On to `COc1cc2c(cc1OCCCC(=O)Nc1cn(C)c(C(=O)Nc3ccc4sccc4c3)n1)N=C[C@@H]1Cc3ccccc3N1C2=O`, for which the IC50 in the assay on KB was found to be 0.04 nM; in assay [1], 0.08 nM; in the assay on NAMALVA, 0.02 nM.

Turning to `COc1cc2c(cc1OCCCC(=O)Nc1cn(C)c(C(=O)Nc3ccc(N)cc3)n1)N=C[C@@H]1Cc3ccccc3N1C2=O`, the results for the IC50 (with KB; in assay [1]; in the assay on NAMALVA) were 0.2 nM, 0.4 nM and 0.06 nM, respectively.

In the case of `COc1cc2c(cc1OCCCC(=O)Nc1cn(C)c(C(=O)Nc3ccc(NC(=O)CCC(C)(C)SSC)cc3)n1)N=C[C@@H]1Cc3ccccc3N1C2=O`, the results for the IC50 (in the assay with KB; in assay [1]; in the assay with NAMALVA) were 0.03 nM, 0.4 nM and 0.03 nM, respectively.
